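Cultured in 96-well plates, cells were exposed to test compound for 48 hours across five concentrations. GI50 is the concentration that inhibits growth by half.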 The source made the active and inactive calls. Rule as the data show it: active = GI50 up to about 1.1 µM and inactive = higher.
What was measured:
Assay in all cases: NCI tumour cell line growth inhibition, 48 h
A498 = tested on: A498
A549 = tested on: A549
ACHN = tested on: ACHN
BT-549 = tested on: BT-549
CAKI-1 = tested on: CAKI-1
CCRF-CEM = tested on: CCRF-CEM
COLO 205 = tested on: COLO 205
DU-145 = tested on: DU-145
EKVX = tested on: EKVX
HCC 2998 = tested on: HCC 2998
HCT-116 = tested on: HCT-116
HCT-15 = tested on: HCT-15
HL-60 = tested on: HL-60
HOP-62 = tested on: HOP-62
HOP-92 = tested on: HOP-92
HT-29 = tested on: HT-29
Hs-578T = tested on: Hs-578T
IGROV-1 = tested on: IGROV-1
K562 = tested on: K562
KM12 = tested on: KM12
LOX IMVI = tested on: LOX IMVI
M14 = tested on: M14
MCF7 = tested on: MCF7
MDA-MB-231 = tested on: MDA-MB-231
MDA-MB-435 = tested on: MDA-MB-435
MDA-N = tested on: MDA-N
MOLT-4 = tested on: MOLT-4
Malme-3M = tested on: Malme-3M
NCI-H23 = tested on: NCI-H23
NCI-H460 = tested on: NCI-H460
NCI-H522 = tested on: NCI-H522
NCI/ADR-RES = tested on: NCI/ADR-RES
OVCAR-3 = tested on: OVCAR-3
OVCAR-4 = tested on: OVCAR-4
OVCAR-5 = tested on: OVCAR-5
OVCAR-8 = tested on: OVCAR-8
PC-3 = tested on: PC-3
RPMI-8226 = tested on: RPMI-8226
RXF 393 = tested on: RXF 393
SF-268 = tested on: SF-268
SF-295 = tested on: SF-295
SF-539 = tested on: SF-539
SK-MEL-28 = tested on: SK-MEL-28
SK-MEL-2 = tested on: SK-MEL-2
SK-MEL-5 = tested on: SK-MEL-5
SK-OV-3 = tested on: SK-OV-3
SN12C = tested on: SN12C
SNB-19 = tested on: SNB-19
SNB-75 = tested on: SNB-75
SW-620 = tested on: SW-620
T47D = tested on: T47D
TK-10 = tested on: TK-10
U-251 = tested on: U-251
UACC-257 = tested on: UACC-257
UACC-62 = tested on: UACC-62
UO-31 = tested on: UO-31
786-0 = tested on: 786-0
NCI-H226 = tested on: NCI-H226

Brc1ccccc1-c1ncc(-c2ccccc2)o1
GI50 (A498): 23 µM (inactive)
GI50 (A549): 44.7 µM (inactive)
GI50 (ACHN): 33.6 µM (inactive)
GI50 (BT-549): 29.2 µM (inactive)
GI50 (CAKI-1): 32.1 µM (inactive)
GI50 (CCRF-CEM): 24.9 µM (inactive)
GI50 (COLO 205): 20.1 µM (inactive)
GI50 (DU-145): 32.1 µM (inactive)
GI50 (EKVX): 6.7 µM (inactive)
GI50 (HCC 2998): 30 µM (inactive)
GI50 (HCT-116): 34.8 µM (inactive)
GI50 (HCT-15): 7.36 µM
GI50 (HL-60): 30.5 µM (inactive)
GI50 (HOP-62): 27.8 µM (inactive)
GI50 (HOP-92): 17.8 µM (inactive)
GI50 (HT-29): 29.9 µM (inactive)
GI50 (Hs-578T): 10.3 µM (inactive)
GI50 (IGROV-1): 19.2 µM (inactive)
GI50 (K562): 21.1 µM (inactive)
GI50 (KM12): 17.4 µM (inactive)
GI50 (LOX IMVI): 17.1 µM (inactive)
GI50 (M14): 29.6 µM (inactive)
GI50 (MCF7): 3.47 µM (inactive)
GI50 (MDA-MB-231): 38 µM (inactive)
GI50 (MDA-MB-435): 23.6 µM (inactive)
GI50 (MDA-N): 31 µM (inactive)
GI50 (MOLT-4): 14.2 µM (inactive)
GI50 (Malme-3M): 26.7 µM (inactive)
GI50 (NCI-H23): 29.4 µM (inactive)
GI50 (NCI-H460): 29.9 µM (inactive)
GI50 (NCI-H522): 22.6 µM (inactive)
GI50 (NCI/ADR-RES): 30.8 µM (inactive)
GI50 (OVCAR-3): 22 µM (inactive)
GI50 (OVCAR-4): 29.4 µM (inactive)
GI50 (OVCAR-5): 66.5 µM (inactive)
GI50 (OVCAR-8): 37.1 µM (inactive)
GI50 (PC-3): 34.2 µM (inactive)
GI50 (RPMI-8226): 15 µM (inactive)
GI50 (RXF 393): 21.7 µM (inactive)
GI50 (SF-268): 27.9 µM (inactive)
GI50 (SF-295): 33.9 µM (inactive)
GI50 (SF-539): 9.91 µM (inactive)
GI50 (SK-MEL-28): 40.6 µM (inactive)
GI50 (SK-MEL-2): 27.3 µM (inactive)
GI50 (SK-MEL-5): 18.1 µM (inactive)
GI50 (SK-OV-3): 31.1 µM (inactive)
GI50 (SN12C): 55.2 µM (inactive)
GI50 (SNB-19): > 100 µM (inactive)
GI50 (SNB-75): 20.6 µM (inactive)
GI50 (SW-620): 35.6 µM (inactive)
GI50 (T47D): 9.29 µM (inactive)
GI50 (TK-10): 47.2 µM (inactive)
GI50 (U-251): 17 µM (inactive)
GI50 (UACC-257): 30.3 µM (inactive)
GI50 (UACC-62): 32.2 µM (inactive)
GI50 (UO-31): 43.7 µM (inactive)

C=CC(=O)N1C/C(=C\c2ccc(N(C)C)cc2)C(=O)/C(=C/c2ccc(N(C)C)cc2)C1
GI50 (786-0): 42.1 µM (inactive)
GI50 (A498): > 100 µM (inactive)
GI50 (A549): > 100 µM (inactive)
GI50 (ACHN): > 100 µM (inactive)
GI50 (BT-549): 73.5 µM (inactive)
GI50 (CAKI-1): > 100 µM (inactive)
GI50 (COLO 205): > 100 µM (inactive)
GI50 (DU-145): > 100 µM (inactive)
GI50 (EKVX): > 100 µM (inactive)
GI50 (HCC 2998): > 100 µM (inactive)
GI50 (HCT-116): 40.6 µM (inactive)
GI50 (HCT-15): 18.2 µM
GI50 (HOP-62): > 100 µM (inactive)
GI50 (HOP-92): > 100 µM (inactive)
GI50 (HT-29): 10.4 µM (inactive)
GI50 (Hs-578T): 30 µM (inactive)
GI50 (IGROV-1): > 100 µM (inactive)
GI50 (K562): 8.97 µM (inactive)
GI50 (KM12): 8.67 µM (inactive)
GI50 (LOX IMVI): 11.2 µM (inactive)
GI50 (M14): > 100 µM (inactive)
GI50 (MCF7): 4.73 µM (inactive)
GI50 (MDA-MB-231): > 100 µM (inactive)
GI50 (MDA-MB-435): 87.5 µM (inactive)
GI50 (MDA-N): 17.8 µM (inactive)
GI50 (MOLT-4): 25.8 µM (inactive)
GI50 (Malme-3M): > 100 µM (inactive)
GI50 (NCI-H226): > 100 µM (inactive)
GI50 (NCI-H23): > 100 µM (inactive)
GI50 (NCI-H460): > 100 µM (inactive)
GI50 (NCI/ADR-RES): > 100 µM (inactive)
GI50 (OVCAR-3): 41.3 µM (inactive)
GI50 (OVCAR-4): > 100 µM (inactive)
GI50 (OVCAR-5): > 100 µM (inactive)
GI50 (OVCAR-8): > 100 µM (inactive)
GI50 (PC-3): 34 µM (inactive)
GI50 (RXF 393): 43.1 µM (inactive)
GI50 (SF-268): 67.3 µM (inactive)
GI50 (SF-295): 18.5 µM (inactive)
GI50 (SF-539): 26.2 µM (inactive)
GI50 (SK-MEL-28): > 100 µM (inactive)
GI50 (SK-MEL-2): > 100 µM (inactive)
GI50 (SK-MEL-5): > 100 µM (inactive)
GI50 (SN12C): > 100 µM (inactive)
GI50 (SNB-19): > 100 µM (inactive)
GI50 (SNB-75): > 100 µM (inactive)
GI50 (SW-620): 40.8 µM (inactive)
GI50 (T47D): > 100 µM (inactive)
GI50 (TK-10): > 100 µM (inactive)
GI50 (U-251): > 100 µM (inactive)
GI50 (UACC-257): > 100 µM (inactive)
GI50 (UACC-62): 44.3 µM (inactive)
GI50 (UO-31): > 100 µM (inactive)

Cc1csc(-n2nc(C)cc2C)n1
GI50 (786-0): > 100 µM (inactive)
GI50 (A498): > 100 µM (inactive)
GI50 (A549): > 100 µM (inactive)
GI50 (ACHN): > 100 µM (inactive)
GI50 (BT-549): > 100 µM (inactive)
GI50 (CAKI-1): > 100 µM (inactive)
GI50 (CCRF-CEM): > 100 µM (inactive)
GI50 (COLO 205): > 100 µM (inactive)
GI50 (DU-145): > 100 µM (inactive)
GI50 (EKVX): > 100 µM (inactive)
GI50 (HCC 2998): > 100 µM (inactive)
GI50 (HCT-116): > 100 µM (inactive)
GI50 (HCT-15): > 100 µM
GI50 (HL-60): > 100 µM (inactive)
GI50 (HOP-62): > 100 µM (inactive)
GI50 (HT-29): > 100 µM (inactive)
GI50 (Hs-578T): > 100 µM (inactive)
GI50 (IGROV-1): > 100 µM (inactive)
GI50 (K562): > 100 µM (inactive)
GI50 (KM12): > 100 µM (inactive)
GI50 (LOX IMVI): > 100 µM (inactive)
GI50 (M14): > 100 µM (inactive)
GI50 (MCF7): > 100 µM (inactive)
GI50 (MDA-MB-231): > 100 µM (inactive)
GI50 (MDA-MB-435): > 100 µM (inactive)
GI50 (MDA-N): > 100 µM (inactive)
GI50 (MOLT-4): 2.38 µM (inactive)
GI50 (Malme-3M): > 100 µM (inactive)
GI50 (NCI-H226): > 100 µM (inactive)
GI50 (NCI-H23): > 100 µM (inactive)
GI50 (NCI-H460): > 100 µM (inactive)
GI50 (NCI-H522): > 100 µM (inactive)
GI50 (NCI/ADR-RES): > 100 µM (inactive)
GI50 (OVCAR-3): > 100 µM (inactive)
GI50 (OVCAR-4): > 100 µM (inactive)
GI50 (OVCAR-5): > 100 µM (inactive)
GI50 (OVCAR-8): > 100 µM (inactive)
GI50 (PC-3): > 100 µM (inactive)
GI50 (RPMI-8226): > 100 µM (inactive)
GI50 (RXF 393): > 100 µM (inactive)
GI50 (SF-268): > 100 µM (inactive)
GI50 (SF-295): > 100 µM (inactive)
GI50 (SF-539): > 100 µM (inactive)
GI50 (SK-MEL-28): > 100 µM (inactive)
GI50 (SK-MEL-2): > 100 µM (inactive)
GI50 (SK-MEL-5): > 100 µM (inactive)
GI50 (SK-OV-3): > 100 µM (inactive)
GI50 (SN12C): > 100 µM (inactive)
GI50 (SNB-19): > 100 µM (inactive)
GI50 (SNB-75): > 100 µM (inactive)
GI50 (SW-620): > 100 µM (inactive)
GI50 (T47D): > 100 µM (inactive)
GI50 (TK-10): > 100 µM (inactive)
GI50 (U-251): > 100 µM (inactive)
GI50 (UACC-257): > 100 µM (inactive)
GI50 (UACC-62): > 100 µM (inactive)
GI50 (UO-31): > 100 µM (inactive)

From ChEMBL document CHEMBL1201862, “PubChem BioAssay data set” (2004)
